The nature of series [1]: Kinetic aqueous solubility (KSOL) in PBS, pH 7.4. The series is classed as physicochemical. Particulars: aqueous buffer, kinetic from dmso stock. How it is done: (§1) ADME studies: Compound A and the compounds of the disclosure were tested for aqueous solubility (KSOL), metabolic stability (human and mouse […]) and permeability (Caco-2 and/or MDR1-MDCK cells) to provide an initial indication of oral bioavailability.
(§2) The favorable physicochemical properties are reflected in promising results in in vitro ADME tests. […] Metabolic stability, which was routinely measured with mouse and human hepatocytes, is outstanding, with t, greater than 2 hours for all of the compounds of the disclosure in which it has been measured. Cell permeability was measured using MDCK cells expressing human MDR1 (P-glycoprotein) to assess passive permeability as well as active transport out of the cell. […] Numerous compounds in Table 1 meet these permeability criteria, which is consistent with their design for TPSA <140 Å^2 and increased lipophilicity.

A short description of series [2]: Metabolic stability in human hepatocytes. Particulars: read-out: Human MS Stability t1/2. The series is classed as in vitro ADME. How it is done: as §1, §2
(§3) The MDCK-MDR1 permeability A ->B is shown in Table 2 below, where A represents 5-10 cm/s×10^−6; B represents 1-5 cm/s×10^−6; and C represents <1 cm/ss×10^−6. The metabolic stability half time, in both mouse and human hepatocytes, is also shown in Table 2 below, where A′ represents 100-200 minutes; B′ represents 200-300 minutes; and C′ represents >300 minutes.

Series [3] can be described thus: Metabolic stability in mouse hepatocytes. The series is classed as in vitro ADME. To be noted: read-out: Mouse MS Stability t1/2. The protocol:
as §1, §2, §3

The test system of another series is MDR1 (P-glycoprotein). The series is described as follows: MDCK-MDR1 permeability A→B. The series is classed as in vitro ADME, Canine. Particulars: dog; MDCK cells expressing human MDR1, A→B; read-out: MDCK-MDR Permeability A→B. The procedure, abridged: (§4)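 Permeability measured apical-to-basolateral in MDCK cells expressing human MDR1, reported as binned ranges in cm/s×10^−6. Metabolic stability determined as half-life in mouse and human hepatocytes, reported as binned ranges in minutes.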

The next series deals with cGAS (Homo sapiens, UniProt Q8N884). In words: Transcreener cGAS enzymatic assay (FP). The series is classed as biochemical. The procedure, abridged: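 Human cGAS (30 nm) inhibition, 60 min reactions, FP read-out, standard conditions 100 μM ATP and GTP plus 62.5 nM bp ISD. Also run at 1 mM ATP and GTP (physiological), with 200 μM MnCl2, and with mouse cGAS under standard conditions; IC50 reported.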
Sequence of cGAS (Q8N884 whole entry): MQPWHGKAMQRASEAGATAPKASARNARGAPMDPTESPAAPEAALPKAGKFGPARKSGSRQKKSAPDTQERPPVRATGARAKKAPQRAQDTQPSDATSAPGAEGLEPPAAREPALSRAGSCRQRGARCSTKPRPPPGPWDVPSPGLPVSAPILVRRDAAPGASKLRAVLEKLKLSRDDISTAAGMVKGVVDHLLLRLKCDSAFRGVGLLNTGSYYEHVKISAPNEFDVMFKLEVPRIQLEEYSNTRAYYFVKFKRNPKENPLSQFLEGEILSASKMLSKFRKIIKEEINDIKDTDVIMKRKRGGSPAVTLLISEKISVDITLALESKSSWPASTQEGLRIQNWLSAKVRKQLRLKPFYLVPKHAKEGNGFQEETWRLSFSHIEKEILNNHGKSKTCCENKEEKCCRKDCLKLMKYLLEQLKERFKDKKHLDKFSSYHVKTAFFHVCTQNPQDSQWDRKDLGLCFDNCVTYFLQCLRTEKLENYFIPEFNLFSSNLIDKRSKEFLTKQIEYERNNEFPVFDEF

Series [4] concerns IFNβ production in THP-1 cells. The series is described as follows: IFNβ ELISA in THP-1 cells. The series is classed as cell-based, human. To be noted: Homo sapiens; THP-1 cells. The procedure, abridged: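 THP-1 cells stimulated with dsDNA or cGAMP (STING activation bypassing cGAS) in the presence of compound; IFNβ secreted into medium quantified by ELISA. IC50 values reported in potency bins.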

In series [5] the test system is IFN-β production in PBMCs. In words: IFNβ ELISA in human primary PBMCs. The series is classed as cell-based. Particulars: PBMC. An excerpt: Cellular assays: The human monocyte cell line THP-1 and human primary PBMCs were used to evaluate the cellular activity of compounds with good biochemical potency. These cells produce a robust cGAS/STING-dependent type I IFN response when stimulated with dsDNA and other pathogen-associated molecular patterns, which was detected using a standard ELISA for IFNβ (R&D Systems). The TBK1 inhibitor, BX-795, which acts downstream of cGAS/STING, was used as a probe.
The ICso values for IFNB ELISA stimulated with THP-1, PBMC, DNA, and cGAMP were determined for several exemplary compounds of the invention, and are provided in Table 3 where A represents <1 μM; B represents 1-2.5 μM; C represents 2.5-10 μM; D represents 10-20 μM; and E represents >20 μM.
The reporter gene assays were used to assess off-target activity with IRF30Luc (RIG-1) or NFKB (TLR4); CellTiter Glo (ATP levels) and Presto Blue (reducing equivalents) were used to assess cytotoxicity; all assays were performed in dose response mode. […] The inventors recently began using human PBMCs to assess cellular potency in a more physiologically relevant context.

For series [6], the system named is MDCK cells expressing human MDR1 (P-glycoprotein). The series is described as follows: MDCK-MDR1 permeability A→B. The series is classed as in vitro ADME, Canine. The procedure, abridged: as §4
Setting [7] is: high ATP and GTP (1 mM) to mimic physiological conditions, read-out: IC50 FP Physiological.
Where [8] appears, read: standard conditions: 100 μM ATP and GTP, 62.5 nM bp ISD, 60 minute reactions, read-out: IC50 FP Standard.

The values below come from patent US20240174684A1, “INHIBITORS OF cGAS ACTIVITY AS THERAPEUTIC AGENTS” (BELLBROOK LABS, LLC, priority 2021, published 2024).

Values after ≈ are worked out from the molar mass of the structure shown. Like-named read-outs stand apart in the source and are kept apart here.

On to `Cc1nc(N2C[C@@H](CC(=O)Nc3ccc4[nH]ccc4c3)C[C@H]2C(=O)O)c2oc3ccccc3c2n1` [Compound 1, (2S,4R)-4-(2-((1H-indol-5-yl)amino)-2-oxyethyl)-1-(2-methylbenzofuro[3,2-d]pyrimidin-4-yl)pyrrolidine-2-carboxylic acid], for which the solubility (kinetic) – broadly, solubility judged after dilution from a stock solution rather than from solid – in series [1] was 487 µM (≈ 229 µg/mL). Moreover, the half-life is over 5 h in series [2] and 1.67 to 3.33 h in series [3]. For the same molecule, in the series on MDR1 (P-glycoprotein), the Papp A→B was 1 to 5 ×10⁻⁶ cm/s. Further, the IC50 (commonly the concentration needed to halve the response being measured) lay in the range of 1000 to 5000 nM on cGAS (setting [7]), 50 to 100 nM on cGAS (setting [8]) and 2500 to 10000 nM in series [4].

Molecule `Cc1nc(N2C[C@@H](CC(=O)Nc3ccc4ncccc4c3)C[C@H]2C(=O)O)c2oc3ccccc3c2n1` [Compound 32, (2S,4R)-1-(2-methylbenzofuro[3,2-d]pyrimidin-4-yl)-4-(2-oxo-2-(quinolin-6-ylamino)ethyl)pyrrolidine-2-carboxylic acid] gave a solubility (kinetic) in series [1] of 527 µM (≈ 254 µg/mL). Besides, the IC50 in series [5] fell in the range of 10000 to 20000 nM; on cGAS (setting [7]) it was 1000 to 5000 nM; on cGAS (setting [8]), 50 to 100 nM; in series [4], 2500 to 10000 nM. Moreover, the half-life was over 5 h in series [2] and 3.33 to 5 h in series [3]. Moreover, the “MDCK-MDR Permeability A→B” value in series [6] is listed as “C (C represents <1 cm/ss×10^−6)”.

Regarding `COc1cc(NC(=O)C[C@H]2C[C@@H](C(=O)O)N(c3nc(C)nc4c3oc3ccccc34)C2)ccn1` [Compound 6, (2S,4R)-4-(2-((2-methoxypyridin-4-yl)amino)-2-oxoethyl)-1-(2-methylbenzofuro[3,2-d]pyrimidin-4-yl)pyrrolidine-2-carboxylic acid], in series [1], the kinetic solubility amounted to 496 µM (≈ 229 µg/mL). The half-life in series [2] and in series [3] was over 5 h in each case. Further, the “MDCK-MDR Permeability A→B” value in series [6] was “C (C represents <1 cm/ss×10^−6)”. In addition, the IC50 on cGAS (setting [7]) is 1000 to 5000 nM; at cGAS (setting [8]), 50 to 100 nM; in series [4] it was 2500 to 10000 nM.

Take `Cc1nc(N2C[C@@H](CC(=O)Nc3ccc(C(F)(F)F)cc3)C[C@H]2C(=O)O)c2oc3ccccc3c2n1` [Compound 24, (28.4R)-1-(2-methylbenzofuro[3,2-d]pyrimidin-4-yl)-4-(2-oxo-2-((4-(trifluoromethyl)phenyl)amino)ethyl)pyrrolidine-2-carboxylic acid]: the IC50 in series [5] was in the range of 10000 to 20000 nM; at cGAS (setting [7]) it was 1000 to 5000 nM; on cGAS (setting [8]), 200 to 1000 nM; in series [4], 10000 to 20000 nM. Moreover, in the series on MDR1 (P-glycoprotein), the Papp A→B fell in the range of 1 to 5 ×10⁻⁶ cm/s.

On to `Cc1nc(N2C[C@@H](CC(=O)Nc3cccc(Cl)c3)C[C@H]2C(=O)O)c2oc3ccccc3c2n1` [Compound 22, (2S,4R)-4-(2-((3-chlorophenyl)amino)-2-oxoethyl)-1-(2-methylbenzofuro[3,2-d]pyrimidin-4-yl)pyrrolidine-2-carboxylic acid], for which the IC50 in series [5] was in the range of 10000 to 20000 nM; at cGAS (setting [7]), 1000 to 5000 nM; on cGAS (setting [8]) it was 100 to 200 nM; in series [4] it was 2500 to 10000 nM. In the series on MDR1 (P-glycoprotein), the Papp A→B was in the range of 1 to 5 ×10⁻⁶ cm/s.

`Cc1nc(N2C[C@@H](CC(=O)N(C)C3CCCC3)C[C@H]2C(=O)O)c2oc3ccccc3c2n1` [Compound 2, (2S,4R)-4-(2-(cyclopentyl(methyl)amino)-2-oxoethyl)-1-(2-methylbenzofuro[3,2-d]pyrimidin-4-yl)pyrrolidine-2-carboxylic acid] yielded a solubility (kinetic) in series [1] of 506 µM (≈ 221 µg/mL). The half-life in series [2] and in series [3] was over 5 h in each case. In addition, the “MDCK-MDR Permeability A→B” value in series [6] was “C (C represents <1 cm/ss×10^−6)”. The figures for the IC50 (at cGAS (setting [7]); at cGAS (setting [8]); in series [4]) were 500 to 1000 nM, 50 to 100 nM and over 20000 nM, respectively.

Molecule `Cc1nc(N2C[C@@H](CC(=O)Nc3ccc4[nH]ncc4c3)C[C@H]2C(=O)O)c2oc3ccccc3c2n1` [Compound 3, (2S,4R)-4-(2-((1H-indazol-5-yl)amino)-2-oxyethyl)-1-(2-methylbenzofuro[3,2-d]pyrimidin-4-yl)pyrrolidine-2-carboxylic acid] had a solubility (kinetic) in series [1] of 496 µM (≈ 233 µg/mL). The half-life in series [3] was over 5 h. In series [6], the “MDCK-MDR Permeability A→B” value was “C (C represents <1 cm/ss×10^−6)”. Moreover, the IC50 was over 5000 nM at cGAS (setting [7]), 1000 to 10000 nM at cGAS (setting [8]) and 10000 to 20000 nM in series [4].

For `Cc1nc(N2C[C@@H](CC(=O)Nc3ccc4ccncc4c3)C[C@H]2C(=O)O)c2oc3ccccc3c2n1` [Compound 34, (28.4R)-4-(2-(isoquinolin-7-ylamino)-2-oxoethyl)-1-(2-methylbenzofuro[3,2-d]pyrimidin-4-yl)pyrrolidine-2-carboxylic acid], the IC50 in series [5] is 2500 to 10000 nM; at cGAS (setting [7]), 200 to 500 nM; on cGAS (setting [8]), under 50 nM; in series [4] it was 2500 to 10000 nM. Also, the Papp A→B in the series with MDR1 (P-glycoprotein) lay within 1 to 5 ×10⁻⁶ cm/s.

`Cc1nc(N2C[C@@H](CC(=O)Nc3ccc(-c4ccc5[nH]ncc5c4)cc3)C[C@H]2C(=O)O)c2oc3ccccc3c2n1` [Compound 38, (2S,4R)-4-(2-((4-(1H-indazol-5-yl)phenyl)amino)-2-oxoethyl)-1-(2-methylbenzofuro[3,2-d]pyrimidin-4-yl)pyrrolidine-2-carboxylic acid] yielded a solubility (kinetic) in series [1] of 84 µM (≈ 45.9 µg/mL). The IC50 in series [5] was 2500 to 10000 nM; at cGAS (setting [7]), 200 to 500 nM; on cGAS (setting [8]), under 50 nM; in series [4], 1000 to 2500 nM. Moreover, the half-life in series [2] was 1.67 to 3.33 h; in series [3], over 5 h. Further, the “MDCK-MDR Permeability A→B” value in series [6] is given as “C (C represents <1 cm/ss×10^−6)”.

Consider `Cc1nc(N2C[C@@H](CC(=O)Nc3ccc(-c4cccnc4)cc3)C[C@H]2C(=O)O)c2oc3ccccc3c2n1` [Compound 37, (2S,4R)-1-(2-methylbenzofuro[3,2-d]pyrimidin-4-yl)-4-(2-oxo-2-((4-(pyridin-3-yl)phenyl)amino)ethyl)pyrrolidine-2-carboxylic acid], for which, in series [1], the kinetic solubility worked out at 547 µM (≈ 278 µg/mL). For the same molecule, the IC50 is 1000 to 2500 nM in series [5], under 200 nM at cGAS (setting [7]), under 50 nM on cGAS (setting [8]) and 1000 to 2500 nM in series [4]. In addition, the half-life is over 5 h in series [2] and 3.33 to 5 h in series [3]. Besides, in series [6], the “MDCK-MDR Permeability A→B” value is given as “C (C represents <1 cm/ss×10^−6)”.

Take `Cc1nc(N2C[C@@H](CC(=O)Nc3ccc(-c4cccc5[nH]ncc45)cc3)C[C@H]2C(=O)O)c2oc3ccccc3c2n1` [Compound 46, (2S,4R)-4-(2-((4-(1H-indazol-4-yl)phenyl)amino)-2-oxoethyl)-1-(2-methylbenzofuro[3,2-d]pyrimidin-4-yl)pyrrolidine-2-carboxylic acid]: the solubility (kinetic) in series [1] is 42 µM (≈ 23 µg/mL). Besides, the IC50 is 1000 to 2500 nM in series [5], under 200 nM on cGAS (setting [7]), under 50 nM on cGAS (setting [8]) and under 1000 nM in series [4]. Also, the half-life in series [2] was 1.67 to 3.33 h; in series [3], over 5 h. The “MDCK-MDR Permeability A→B” value in series [6] is “C (C represents <1 cm/ss×10^−6)”.

Consider `Cc1nc(N2C[C@@H](CC(=O)Nc3ccc(OC(F)(F)F)cc3)C[C@H]2C(=O)O)c2oc3ccccc3c2n1` [Compound 12, (2S,4R)-1-(2-methylbenzofuro[3,2-d]pyrimidin-4-yl)-4-(2-oxo-2-((4-(trifluoromethoxy)phenyl)amino)ethyl)pyrrolidine-2-carboxylic acid], for which the IC50 was 2500 to 10000 nM in series [5], over 5000 nM at cGAS (setting [7]), 200 to 1000 nM on cGAS (setting [8]) and 1000 to 2500 nM in series [4]. The Papp A→B in the series on MDR1 (P-glycoprotein) fell in the range of 5 to 10 ×10⁻⁶ cm/s.
